According to patent US7279161B2, “Factor IX/factor IXa activating antibodies and antibody derivatives” (Baxter Aktiengesellschaft, priority 1999, dated 2007):

Columns and labels:
human FIXa = biological target: T1, human FIXa (Homo sapiens, UniProt P00740); assay: Chromogenic FVIII-like (FXa generation) assay with human FIXa added; format: biochemical
T1 construct: with (+) and without (−) addition of 50 ng human FIXaβ; purchased ERL (Enzyme Research Laboratories)
Outline: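 FXa generation at 37 °C with bovine FIXa/FX plus phospholipids, 25 mM CaCl2 stock, S-2222 substrate and thrombin inhibitor I-2581; 50 ng human FIXa added per reaction. Absorbance at 405 and 490 nm read from 5 min to 2 h against a reagent blank.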

FVIII inhibitor plasma = assay: aPTT based one stage clotting assay in FVIII inhibitor plasma; format: biochemical; details: inhibitor plasma 8.1 Bethesda Units per ml
Procedure: […] […] […] After a 4 minute incubation, the reaction was started by the addition of 100 μl CaCl2 (25 mM). To ensure equal conditions, the experiments employing FVIII deficient plasma and FVIII inhibitor plasma were done side by side.
To assay for the procoagulant activity of peptide A1/3 in FVIII inhibitor plasma the following experiment was carried out. We performed a standard aPTT based one stage clotting assay, but instead of FVIII deficient plasma we employed FVIII inhibitor plasma.

T1 sequence (P00740 47-191 limits assumed): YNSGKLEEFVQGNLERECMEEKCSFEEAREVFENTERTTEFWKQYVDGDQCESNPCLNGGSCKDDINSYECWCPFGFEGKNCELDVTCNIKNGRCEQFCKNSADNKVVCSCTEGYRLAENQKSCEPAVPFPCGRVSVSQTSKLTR
T1 sequence (P00740 227-461 limits assumed): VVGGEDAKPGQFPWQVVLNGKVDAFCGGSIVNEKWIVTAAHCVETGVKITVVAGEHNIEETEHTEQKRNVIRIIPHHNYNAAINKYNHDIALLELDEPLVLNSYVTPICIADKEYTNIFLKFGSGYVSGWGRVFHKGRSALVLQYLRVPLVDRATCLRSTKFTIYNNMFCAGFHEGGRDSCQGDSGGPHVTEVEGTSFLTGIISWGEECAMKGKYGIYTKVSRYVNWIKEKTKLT

chromogenic FVIII-like activity (FXa generation) (human FIXa; 2.9 nM human FIXa): readily measurable FXa generation
chromogenic activity (human FIXa; 12 μM peptide, 2.3 nM human FIXa): virtually unchanged
Sequence: RRREGGGYYVNWYFDRRR [A1/3]
chromogenic FVIII-like activity (human FIXa; 24 μM, with vs without 2.3 nM human FIXa): the reaction takes place only in the presence of human FIXa
average clotting time (FVIII inhibitor plasma; 1.25 μM, 2.2 nM FIXa): 91 s
clotting time (FVIII inhibitor plasma; 1.25 μM, 2.2 nM FIXa, duplicate 1): 91.3 s
clotting time (FVIII inhibitor plasma; 1.25 μM, 2.2 nM FIXa, duplicate 2): 91.4 s
average clotting time (FVIII inhibitor plasma; 1.25 μM, w/o FIXa): 104 s
clotting time (FVIII inhibitor plasma; 1.25 μM, w/o FIXa, duplicate 1): 104.5 s
clotting time (FVIII inhibitor plasma; 1.25 μM, w/o FIXa, duplicate 2): 104.3 s
average clotting time (FVIII inhibitor plasma; 2.5 μM, 2.2 nM FIXa): 90 s
clotting time (FVIII inhibitor plasma; 2.5 μM, 2.2 nM FIXa, duplicate 1): 90.2 s
clotting time (FVIII inhibitor plasma; 2.5 μM, 2.2 nM FIXa, duplicate 2): 90.5 s
average clotting time (FVIII inhibitor plasma; 2.5 μM, w/o FIXa): 106 s
clotting time (FVIII inhibitor plasma; 2.5 μM, w/o FIXa, duplicate 1): 106.1 s
clotting time (FVIII inhibitor plasma; 2.5 μM, w/o FIXa, duplicate 2): 105.3 s
average clotting time (FVIII inhibitor plasma; 5 μM, 2.2 nM FIXa): 82 s
clotting time (FVIII inhibitor plasma; 5 μM, 2.2 nM FIXa, duplicate 1): 81 s
clotting time (FVIII inhibitor plasma; 5 μM, 2.2 nM FIXa, duplicate 2): 82 s
average clotting time (FVIII inhibitor plasma; 5 μM, w/o FIXa): 101 s
clotting time (FVIII inhibitor plasma; 5 μM, w/o FIXa, duplicate 1): 101.5 s
clotting time (FVIII inhibitor plasma; 5 μM, w/o FIXa, duplicate 2): 101.1 s
average clotting time (FVIII inhibitor plasma; 7.5 μM, 2.2 nM FIXa): 70 s
clotting time (FVIII inhibitor plasma; 7.5 μM, 2.2 nM FIXa, duplicate 1): 68.8 s
clotting time (FVIII inhibitor plasma; 7.5 μM, 2.2 nM FIXa, duplicate 2): 70.9 s
average clotting time (FVIII inhibitor plasma; 7.5 μM, w/o FIXa): 93 s
clotting time (FVIII inhibitor plasma; 7.5 μM, w/o FIXa, duplicate 1): 93.7 s
clotting time (FVIII inhibitor plasma; 7.5 μM, w/o FIXa, duplicate 2): 92.7 s
average clotting time (FVIII inhibitor plasma; 10 μM, 2.2 nM FIXa): 62 s
clotting time (FVIII inhibitor plasma; 10 μM, 2.2 nM FIXa, duplicate 1): 61.3 s
clotting time (FVIII inhibitor plasma; 10 μM, 2.2 nM FIXa, duplicate 2): 61.8 s
average clotting time (FVIII inhibitor plasma; 10 μM, w/o FIXa): 88 s
clotting time (FVIII inhibitor plasma; 10 μM, w/o FIXa, duplicate 1): 88.4 s
clotting time (FVIII inhibitor plasma; 10 μM, w/o FIXa, duplicate 2): 87.9 s
average clotting time (FVIII inhibitor plasma; 12.5 μM, 2.2 nM FIXa): 61 s
clotting time (FVIII inhibitor plasma; 12.5 μM, 2.2 nM FIXa, duplicate 1): 61 s
clotting time (FVIII inhibitor plasma; 12.5 μM, 2.2 nM FIXa, duplicate 2): 60.2 s
average clotting time (FVIII inhibitor plasma; 12.5 μM, w/o FIXa): 86 s
clotting time (FVIII inhibitor plasma; 12.5 μM, w/o FIXa, duplicate 1): 85.8 s
clotting time (FVIII inhibitor plasma; 12.5 μM, w/o FIXa, duplicate 2): 85.3 s
